{"source": "ChEMBL document CHEMBL5346873", "about": "“Strategic modification of low-activity natural antimicrobial peptides confers antibacterial potential in vitro and in vivo” (Eur J Med Chem, 2023)", "key": {"[1]": {"test": "Hemolytic activity in human RBC at 100 ug/ml incubated for 1 hr", "assay_type": "toxicity, cell-based, Erythrocyte", "settings": "human red blood cells (erythrocytes), at 100 µg/mL, read-out: Activity"}, "Vibrio vulnificus [2]": {"test_system": "Vibrio vulnificus", "test": "Bactericidal activity against Vibrio vulnificus 204 at MIC after 5 mins", "assay_type": "functional, organism-based"}, "Streptococcus iniae": {"test_system": "Streptococcus iniae", "test": "Antibacterial activity against Streptococcus iniae in presence of human serum", "assay_type": "functional, organism-based"}, "Pseudomonas aeruginosa [3]": {"test_system": "Pseudomonas aeruginosa", "test": "Additive antibacterial activity against Pseudomonas aeruginosa in presence of doxycycline by checkerboard microtiter plate assay", "assay_type": "functional"}, "Escherichia coli [4]": {"test_system": "Escherichia coli", "test": "Additive antibacterial activity against Escherichia coli in presence of doxycycline by checkerboard microtiter plate assay", "assay_type": "functional"}, "Klebsiella aerogenes [5]": {"test_system": "Klebsiella aerogenes", "test": "Additive antibacterial activity against Enterobacter aerogenes in presence of doxycycline by checkerboard microtiter plate assay", "assay_type": "functional"}, "Klebsiella pneumoniae [6]": {"test_system": "Klebsiella pneumoniae", "test": "Synergistic antibacterial activity against Klebsiella pneumoniae expressing NDM1 in presence of meropenem by checkerboard microtiter plate assay", "assay_type": "functional"}, "Pseudomonas aeruginosa [7]": {"test_system": "Pseudomonas aeruginosa", "test": "Additive antibacterial activity against Pseudomonas aeruginosa assessed as doxycycline MIC by checkerboard microtiter plate assay", "assay_type": "functional"}, "Escherichia coli [8]": {"test_system": "Escherichia coli", "test": "Additive antibacterial activity against Escherichia coli assessed as doxycycline MIC by checkerboard microtiter plate assay", "assay_type": "functional"}, "Klebsiella aerogenes [9]": {"test_system": "Klebsiella aerogenes", "test": "Additive antibacterial activity against Enterobacter aerogenes assessed as doxycycline MIC by checkerboard microtiter plate assay", "assay_type": "functional"}, "Klebsiella pneumoniae [10]": {"test_system": "Klebsiella pneumoniae", "test": "Synergistic antibacterial activity against Klebsiella pneumoniae expressing NDM1 assessed as meropenem MIC by checkerboard microtiter plate assay", "assay_type": "functional"}, "Pseudomonas aeruginosa [11]": {"test_system": "Pseudomonas aeruginosa", "test": "Additive antibacterial activity against Pseudomonas aeruginosa assessed as fractional inhibitory concentration in presence of doxycycline by checkerboard microtiter plate assay", "assay_type": "functional"}, "Escherichia coli [12]": {"test_system": "Escherichia coli", "test": "Additive antibacterial activity against Escherichia coli assessed as fractional inhibitory concentration in presence of doxycycline by checkerboard microtiter plate assay", "assay_type": "functional"}, "Klebsiella aerogenes [13]": {"test_system": "Klebsiella aerogenes", "test": "Additive antibacterial activity against Enterobacter aerogenes assessed as fractional inhibitory concentration in presence of doxycycline by checkerboard microtiter plate assay", "assay_type": "functional"}, "Klebsiella pneumoniae [14]": {"test_system": "Klebsiella pneumoniae", "test": "Synergistic antibacterial activity against Klebsiella pneumoniae expressing NDM1 assessed as fractional inhibitory concentration in presence of meropenem by checkerboard microtiter plate assay", "assay_type": "functional"}, "Vibrio vulnificus [15]": {"test_system": "Vibrio vulnificus", "test": "Antibacterial activity against Vibrio vulnificus infected in BALB/c mouse wound infection model assessed as reduction in bacterial infection at 6.25 ug per animal administered 12 hrs post infection and measured for 14 days", "assay_type": "functional, organism-based", "settings": "dose 6.25 µg, time 14.0 day"}, "Vibrio vulnificus [16]": {"test_system": "Vibrio vulnificus", "test": "Antibacterial activity against Vibrio vulnificus infected in BALB/c mouse wound infection model assessed as reduction in wound infection rate at 6.25 ug per animal administered 12 hrs post infection and measured for 14 days", "assay_type": "functional, organism-based", "settings": "dose 6.25 µg, time 14.0 day"}, "Vibrio vulnificus [17]": {"test_system": "Vibrio vulnificus", "test": "Antibacterial activity against Vibrio vulnificus infected in BALB/c mouse wound infection model assessed as survival at 6.25 ug per animal administered 12 hrs post infection and measured for 14 days", "assay_type": "functional", "settings": "dose 6.25 µg; time 14 day"}, "Vibrio vulnificus [18]": {"test_system": "Vibrio vulnificus", "test": "Bactericidal activity against Vibrio vulnificus 204 at MIC after 30 mins", "assay_type": "functional", "settings": "0.5 h"}, "Pseudomonas aeruginosa [19]": {"test_system": "Pseudomonas aeruginosa", "test": "Antibacterial activity against Pseudomonas aeruginosa in presence of doxycycline", "assay_type": "functional"}, "Pseudomonas aeruginosa [20]": {"test_system": "Pseudomonas aeruginosa", "test": "Antibacterial activity against Pseudomonas aeruginosa assessed as doxycycline MIC", "assay_type": "functional"}, "Pseudomonas aeruginosa [21]": {"test_system": "Pseudomonas aeruginosa", "test": "Antibacterial activity against Pseudomonas aeruginosa assessed as fractional inhibitory concentration in presence of doxycycline", "assay_type": "functional"}, "Escherichia coli [22]": {"test_system": "Escherichia coli", "test": "Synergistic antibacterial activity against Escherichia coli in presence of doxycycline", "assay_type": "functional"}, "Escherichia coli [23]": {"test_system": "Escherichia coli", "test": "Synergistic antibacterial activity against Escherichia coli assessed as doxycycline MIC", "assay_type": "functional"}, "Escherichia coli [24]": {"test_system": "Escherichia coli", "test": "Synergistic antibacterial activity against Escherichia coli assessed as fractional inhibitory concentration in presence of doxycycline", "assay_type": "functional"}, "Klebsiella aerogenes [25]": {"test_system": "Klebsiella aerogenes", "test": "Antibacterial activity against Enterobacter aerogenes in presence of doxycycline", "assay_type": "functional"}, "Klebsiella aerogenes [26]": {"test_system": "Klebsiella aerogenes", "test": "Antibacterial activity against Enterobacter aerogenes assessed as doxycycline MIC", "assay_type": "functional"}, "Klebsiella aerogenes [27]": {"test_system": "Klebsiella aerogenes", "test": "Antibacterial activity against Enterobacter aerogenes assessed as fractional inhibitory concentration", "assay_type": "functional"}, "Klebsiella pneumoniae [28]": {"test_system": "Klebsiella pneumoniae", "test": "Additive antibacterial activity against Klebsiella pneumoniae expressing NDM1 in presence of meropenem", "assay_type": "functional"}, "Klebsiella pneumoniae [29]": {"test_system": "Klebsiella pneumoniae", "test": "Additive antibacterial activity against Klebsiella pneumoniae expressing NDM1 assessed as meropenem MIC", "assay_type": "functional"}, "Klebsiella pneumoniae [30]": {"test_system": "Klebsiella pneumoniae", "test": "Additive antibacterial activity against Klebsiella pneumoniae expressing NDM1 assessed as fractional inhibitory concentration in presence of meropenem", "assay_type": "functional"}, "Vibrio vulnificus [31]": {"test_system": "Vibrio vulnificus", "test": "Antibacterial activity against Vibrio vulnificus infected in BALB/c mouse wound infection model assessed as reduction in bacterial infection at 12.5 ug per animal administered 12 hrs post infection and measured for 14 days", "assay_type": "functional, organism-based", "settings": "dose 12.5 µg, time 14.0 day"}, "Vibrio vulnificus [32]": {"test_system": "Vibrio vulnificus", "test": "Antibacterial activity against Vibrio vulnificus infected in BALB/c mouse wound infection model assessed as reduction in wound infection rate at 12.5 ug per animal administered 12 hrs post infection and measured for 14 days", "assay_type": "functional, organism-based", "settings": "dose 12.5 µg, time 14.0 day"}, "Vibrio vulnificus [33]": {"test_system": "Vibrio vulnificus", "test": "Antibacterial activity against Vibrio vulnificus infected in BALB/c mouse wound infection model assessed as survival at 12.5 ug per animal administered 12 hrs post infection and measured for 14 days", "assay_type": "functional", "settings": "dose 12.5 µg; time 14 day"}}, "note": "Active and inactive are the calls of the source. No cut-off for these calls is given here."}
{"substance": "H-FKWKSVLKGVKGFVKGYF-OH", "values": [{"measurement": "hemolysis at 1 h, 100 ug/ml", "setting": "[1]", "result": 26.5, "unit": "%"}, {"measurement": "Activity", "setting": "Vibrio vulnificus [2]", "result": "Active"}, {"measurement": "Activity", "setting": "Streptococcus iniae", "result": "Active"}, {"measurement": "MIC", "setting": "Pseudomonas aeruginosa [3]", "result": 12.5, "unit": "µg/mL"}, {"measurement": "MIC", "setting": "Escherichia coli [4]", "result": 3.12, "unit": "µg/mL"}, {"measurement": "MIC", "setting": "Klebsiella aerogenes [5]", "result": 6.25, "unit": "µg/mL"}, {"measurement": "MIC", "setting": "Klebsiella pneumoniae [6]", "result": 6.25, "unit": "µg/mL"}, {"measurement": "MIC", "setting": "Pseudomonas aeruginosa [7]", "result": 6.25, "unit": "µg/mL"}, {"measurement": "MIC", "setting": "Escherichia coli [8]", "result": 0.024, "unit": "µg/mL"}, {"measurement": "MIC", "setting": "Klebsiella aerogenes [9]", "result": 0.78, "unit": "µg/mL"}, {"measurement": "MIC", "setting": "Klebsiella pneumoniae [10]", "result": 3.12, "unit": "µg/mL"}, {"measurement": "FIC", "setting": "Pseudomonas aeruginosa [11]", "result": 1}, {"measurement": "FIC", "setting": "Escherichia coli [12]", "result": 0.53}, {"measurement": "FIC", "setting": "Klebsiella aerogenes [13]", "result": 1}, {"measurement": "FIC", "setting": "Klebsiella pneumoniae [14]", "result": 0.26}, {"measurement": "Activity", "setting": "Vibrio vulnificus [15]", "result": "Active"}, {"measurement": "Activity", "setting": "Vibrio vulnificus [16]", "result": "inactive"}, {"measurement": "Activity", "setting": "Vibrio vulnificus [17]", "result": 20, "unit": "%"}]}
{"substance": "H-KKCIAKAILKKAKKLLKKLVNP-OH", "values": [{"measurement": "hemolysis at 1 h, 100 ug/ml", "setting": "[1]", "result": 5.5, "unit": "%"}, {"measurement": "Activity", "setting": "Vibrio vulnificus [18]", "result": 100, "unit": "%"}, {"measurement": "MIC", "setting": "Pseudomonas aeruginosa [19]", "result": 25, "unit": "µg/mL"}, {"measurement": "MIC", "setting": "Pseudomonas aeruginosa [20]", "result": 1.56, "unit": "µg/mL"}, {"measurement": "FIC", "setting": "Pseudomonas aeruginosa [21]", "result": 1.12}, {"measurement": "MIC", "setting": "Escherichia coli [22]", "result": 6.25, "unit": "µg/mL"}, {"measurement": "MIC", "setting": "Escherichia coli [23]", "result": 0.195, "unit": "µg/mL"}, {"measurement": "FIC", "setting": "Escherichia coli [24]", "result": 0.5}, {"measurement": "MIC", "setting": "Klebsiella aerogenes [25]", "result": 6.25, "unit": "µg/mL"}, {"measurement": "MIC", "setting": "Klebsiella aerogenes [26]", "result": 0.048, "unit": "µg/mL"}, {"measurement": "FIC", "setting": "Klebsiella aerogenes [27]", "result": 1.03}, {"measurement": "MIC", "setting": "Klebsiella pneumoniae [28]", "result": 12.5, "unit": "µg/mL"}, {"measurement": "MIC", "setting": "Klebsiella pneumoniae [29]", "result": 3.12, "unit": "µg/mL"}, {"measurement": "FIC", "setting": "Klebsiella pneumoniae [30]", "result": 0.51}, {"measurement": "Activity", "setting": "Vibrio vulnificus [31]", "result": "Active"}, {"measurement": "Activity", "setting": "Vibrio vulnificus [32]", "result": "inactive"}, {"measurement": "Activity", "setting": "Vibrio vulnificus [33]", "result": 80, "unit": "%"}]}
